Data reported in patent publication US10030016B2 (Sunesis Pharmaceuticals, Inc., priority 2009, dated 2018).
Structures can show the parent of a compound that is named as a salt. Where two headings read alike, the source gives them in different places.

Legend:
PDK1 = PDK1 (Homo sapiens (Human), UniProt O15530); test: PDK1 kinase assay (coupled PDK1/AKT/FAM-crosstide assay, IMAP fluorescence polarization); format: biochemical
Procedure, shortened: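 Coupled cascade: 0.75 nM PDK1 (51-359) → 10 nM AKT2 (140-467-PIFtide) → 100 nM FAM-crosstide. ATP 40 μM, 25° C, 30 min. IMAP FP (ex 485/em 530), 2 h binding. ΔmP vs conc, 4-param fit.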

[1] = test system: phospho-akt (Thr308) in PC-3 cells; test: Inhibition of phospho-akt (Thr308) in PC-3 cells, MSD phospho-akt 308 ELISA kit; format: cell-based
Procedure, shortened: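 Phospho-Akt (Thr308) levels were measured by MSD ELISA after PC-3 cells received compound for 2 hours in serum-free medium. Controls: DMSO (high), 5 μM wortmannin (low).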

[2] = inhibition of phospo-PDK1 in vitro
[3] = Homo sapiens, inhibition of P308 Akt in PC-3 cells, 2 hours, no serum, MSD, read-out: EC50
[4] = Homo sapiens, inhibition of P308 Akt in PC-3 cells using MSD, 2 hours, no serum, read-out: EC50

PDK1, sequence (O15530 51-359): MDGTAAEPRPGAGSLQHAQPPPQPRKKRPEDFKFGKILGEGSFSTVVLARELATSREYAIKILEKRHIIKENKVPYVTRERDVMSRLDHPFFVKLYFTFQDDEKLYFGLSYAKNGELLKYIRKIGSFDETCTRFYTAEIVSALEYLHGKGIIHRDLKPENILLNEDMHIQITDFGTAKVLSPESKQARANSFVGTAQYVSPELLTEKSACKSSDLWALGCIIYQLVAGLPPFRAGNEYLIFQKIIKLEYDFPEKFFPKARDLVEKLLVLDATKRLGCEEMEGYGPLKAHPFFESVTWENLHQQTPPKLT

Row | SMILES | IC50 (PDK1; [2]) [nM] | EC50 [1, 3] [nM] | IC50 (PDK1; inhibition of PDK1 in vitro) [nM] | other results
1 | Cn1cnc2cnc3ccc(-c4ccc(CNc5ncc(C(F)(F)F)cc5C(=O)NCc5ccc(F)c(F)c5)s4)cc3c21 [Example 2.26, N-(3,4-difluorobenzyl)-2-(((5-(1-methyl-1H-imidazo[4,5-c]quinolin-8-yl)thiophen-2-yl)methyl)amino)-5-(trifluoromethyl)nicotinamide] | < 100 | < 1000 |  | 
2 | Cc1nc2cnc3ccc(-c4ccc(CNc5ncccc5C(=O)N[C@@H](C)c5ccc(F)cc5)s4)cc3c2n1C [Example 2.19, (S)-2-(((5-(1,2-dimethyl-1H-imidazo[4,5-c]quinolin-8-yl)thiophen-2-yl)methyl)amino) N-(1-(4-fluorophenyl)ethyl) nicotinamide] | 100 to 1000 | < 1000 |  | 
3 | C[C@H](NC(=O)c1cccnc1NC/C=C/c1ccc2c(c1)NC(=O)/C2=C\c1cnc[nH]1)c1ccc(F)c(F)c1 [Example 15.5, 2-((E)-3-((Z)-3-((1H-imidazol-5-yl)methylene)-2-oxoindolin-6-yl)allylamino)-N-((S)-1-(3,4-difluorophenyl)ethyl)nicotinamide] | < 100 | < 1000 |  | 
4 | CC(C)Oc1cc(CNc2ncccc2C(=O)Nc2ccc(C(F)(F)F)cc2)cc(-c2c[nH]c3ncc(C(=O)NC4CC4)cc23)c1 [Example 4.1.2] | > 5000 | > 10000 |  | 
5 | C[C@@H](c1ccc(F)c(F)c1)n1cnc2c(C#N)cnc(NCc3ccc(-c4ccc5ncnc(N)c5c4)s3)c2c1=O [Ex. 7.25, (S)-5-(((5-(4-aminoquinazolin-6-yl)thiophen-2-yl)methyl)amino)-3-(1-(3,4-difluorophenyl)ethyl)-4-oxo-3,4-dihydropyrido[4,3-d]pyrimidine-8-carbonitrile] | < 100 | < 1000 |  | 
6 | C[C@H](NC(=O)c1cccnc1NCc1ccc(-c2ccc3ncc(N)nc3c2)s1)c1ccc(F)c(F)c1 [Example 4.30, (S)-2-(((5-(3-aminoquinoxalin-6-yl)thiophen-2-yl)methyl)amino)-N-(1-(3,4-difluorophenyl)ethyl) nicotinamide] | 100 to 1000 |  |  | EC50 ([1]; Homo sapiens, PC-3, 2 h, inhibition of P308 Akt in PC-3 cells, 2 hours, no serum, MSD, read-out: EC50): 1000 to 10000 nM
7 | Nc1ncnc2ccc(-c3cccc(CNc4ncccc4C(=O)NCc4ccc(F)c(F)c4)c3)cc12 [Example 6.1, 2-(3-(4-aminoquinazolin-6-yl)benzylamino)-N-(3,4-difluorobenzyl)nicotinamide] | < 100 | 1000 to 10000 |  | 
8 | C[C@H](NC(=O)c1cccnc1NCc1ccc(-c2ccc3ncnc(N4CC(CO)C4)c3c2)s1)c1ccc(F)c(F)c1 [Example 4.38] | < 100 | 1000 to 10000 |  | 
9 | COCCCNc1cnc(-c2ccc(CNc3ncc(C#N)cc3C(=O)N[C@@H](C)c3ccc(F)cc3)cc2)cn1 [Example 228, 5-Cyano-N-[(S)-1-(4-fluoro-phenyl)-ethyl]-2-{4-[5-(3-methoxy-propylamino)-pyrazin-2-yl]-benzylamino}-nicotinamide] |  |  | 1000 to 5000 | EC50 [1, 4]: > 10000 nM
10 | C[C@H](NC(=O)c1cc(C#N)cnc1NCc1cnc(-c2cnc3[nH]ncc3c2)s1)c1ccc(F)cc1 [Example 67, 5-Cyano-N-[(S)-1-(4-fluoro-phenyl)-ethyl]-2-{[2-(1H-pyrazolo[3,4-b]pyridin-5-yl)-thiazol-5-ylmethyl]-amino}-nicotinamide] |  |  | < 100 | EC50 [1, 4]: 1000 to 10000 nM
11 | C[C@H](NC(=O)c1cc(C#N)cnc1NCc1ccc(-c2cnc(N)c(C(=O)NCCCO)n2)cc1)c1ccc(F)cc1 [Example 209, (S)-3-amino-6-(4-((5-cyano-3-(1-(4-fluorophenyl)ethylcarbamoyl)pyridin-2-ylamino)methyl)phenyl)-N-(3-hydroxypropyl) pyrazine-2-carboxamide] |  |  | < 100 | EC50 ([1]; inhibition of P308 Akt in PC-3 cells using MSD, 2 hours, no serum, read-out: EC50): < 1000 nM
12 | Nc1ncnc2ccc(-c3ccc(CNc4ncccc4C(=O)NCc4cc(F)cc(F)c4)s3)cc12 [Example 3.39, 2-({[5-(4-aminoquinazolin-6-yl)thiophen-2-yl]methyl}amino)-N-(3,5-difluorobenzyl) pyridine-3-carboxamide (TFA salt)] | < 100 | < 1000 |  | 
13 | Cn1cc(-c2ccc(CNc3ncc(C#N)nc3C(=O)NCc3cncc(F)c3)cc2)c2c(N)ncnc21 [Example 28, 3-(4-(4-amino-7-methyl-7H-pyrrolo[2,3-d]pyrimidin-5-yl)benzylamino)-6-cyano-N-((5-fluoropyridin-3-yl)methyl)pyrazine-2-carboxamide] | < 100 | < 1000 |  | 
14 | C=C(C)c1cnc(NCc2ccc(-c3ccc4ncnc(N)c4c3)s2)c(C(=O)NCc2ccc(F)c(F)c2)c1 [Ex. 8.13, 2-({[5-(4-aminoquinazolin-6-yl)thiophen-2-yl]methyl}amino)-N-(3,4-difluorobenzyl)-5-(prop-1-en-2-yl)pyridine-3-carboxamide] | < 100 | < 1000 |  | 
15 | Nc1n[nH]c2ncc(-c3ccc(CNc4ncc(C(F)(F)F)cc4C(=O)Nc4cccc(F)c4)cc3)cc12 [Example 262, 2-(4-(3-amino-1H-pyrazolo [3,4-b]pyridin-5-yl)benzylamino)-N-(3-fluorophenyl)-5-(trifluoromethyl) nicotinamide] |  |  | < 100 | EC50 [1, 4]: < 1000 nM
16 | C[C@H](NC(=O)c1cc(S(C)(=O)=O)cnc1NCc1ccc(-c2ccc3ncnc(N)c3c2)s1)c1ccc(F)cc1 [Example 7.22.2, 2-({[5-(4-aminoquinazolin-6-yl)thiophen-2-yl]methyl}amino)-N-[(1S)-1-(4-fluorophenyl)ethyl]-5-(methylsulfonyl)pyridine-3-carboxamide] | 100 to 1000 | < 1000 |  | 
17 | C[C@H](NC(=O)c1cc(C#N)cnc1NCc1cnc(-c2cnc3[nH]ncc3c2)cn1)c1ccc(F)cc1 [Example 63, 5-Cyano-N-[(S)-1-(4-fluoro-phenyl)-ethyl]-2-{[5-(1H-pyrazolo[3,4-b]pyridin-5-yl)-pyrazin-2-ylmethyl]-amino}-nicotinamide] |  |  | < 100 | EC50 [1, 4]: > 10000 nM
18 | C[C@H](NC(=O)c1cn(-c2ccccn2)nc1NCc1ccc(-c2ccc3ncnc(N)c3c2)s1)c1ccc(F)c(F)c1 [Ex. 11.3] | < 100 | < 1000 |  | 
19 | C[C@H](NC(=O)c1cc(F)cnc1NCc1ccc(-c2ccc3ncnc(N)c3c2)s1)c1ccc(F)c(F)c1 [Example 7.13, 2-({[5-(4-aminoquinazolin-6-yl)thiophen-2-yl]methyl}amino)-N-[(1S)-1-(3,4-difluorophenyl)ethyl]-5-fluoropyridine-3-carboxamide] | 100 to 1000 | < 1000 |  | 
20 | O=C(NCc1ccc(F)c(F)c1)c1cccnc1NCc1cc(-c2c[nH]c3ncc(-c4ccc[nH]4)cc23)ccn1 [Example 336] |  |  | < 100 | EC50 [1, 4]: 1000 to 10000 nM
21 | Nc1ncnc2ccc(-c3ccc(CNc4ncccc4C(=O)NCc4cccc(F)c4F)s3)cc12 [Example 3.10, 2-({[5-(4-aminoquinazolin-6-yl)thiophen-2-yl]methyl}amino)-N-(2,3-difluorobenzyl)pyridine-3-carboxamide (TFA salt)] | 100 to 1000 | 1000 to 10000 |  | 
22 | C[C@H](NC(=O)c1cc(C#N)cnc1NCc1ccc(-c2cnc(N)c(NCCN)n2)cc1)c1ccc(F)cc1 [Example 199, 2-{4-[5-Amino-6-(2-amino-ethylamino)-pyrazin-2-yl]-benzylamino}-5-cyano-N-[(S)-1-(4-fluoro-phenyl)-ethyl]-nicotinamide] |  |  | < 100 | EC50 [1, 4]: < 1000 nM
23 | Nc1ncnc2[nH]cc(-c3ccc(CNc4ncc(C(F)(F)F)cc4C(=O)NCc4ccc(F)c(F)c4)cc3)c12 [Example 330, 2-[4-(4-Amino-7H-pyrrolo [2,3-d]pyrimidin-5-yl)-benzylamino]-N-(3,4-difluoro-benzyl)-5-trifluoromethyl-nicotinamide] |  |  | < 100 | EC50 [1, 4]: < 1000 nM
24 | Nc1ncnc2ccc(-c3csc(CNc4ncccc4C(=O)NCc4ccc(F)c(F)c4)n3)cc12 [Ex. 6.7, 2-({[4-(4-aminoquinazolin-6-yl)-1,3-thiazol-2-yl]methyl}amino)-N-(3,4-difluoro-benzyl) pyridine-3-carboxamide] | < 100 | > 10000 |  | 
25 | COC(=O)C[C@@H](Nc1ncc(C#N)cc1C(=O)N[C@@H](C)c1ccc(F)cc1)c1ccc(-c2c[nH]c3ncnc(N)c23)cc1 [Example 44, (R)-methyl 3-(4-(4-amino-7H-pyrrolo[2,3-d]pyrimidin-5-yl)phenyl)-3-(5-cyano-3-((S)-1-(4-fluorophenyl)ethylcarbamoyl)pyridin-2-ylamino)propanoate] |  |  |  | IC50 (PDK1): < 100 nM; EC50 ([1]; Homo sapiens, PC-3, 2 h): 1000 to 10000 nM
26 | C[C@H](NC(=O)c1cc(C#N)cnc1NCc1ccc(-c2ccc(N)nc2)nc1)c1ccc(F)cc1 [Example 68, 2-[(6′-Amino-[2,3′]bipyridinyl-5-ylmethyl)-amino]-5-cyano-N-[(S)-1-(4-fluoro-phenyl)-ethyl]-nicotinamide] |  |  | < 100 | EC50 [1, 4]: 1000 to 10000 nM
27 | O=C(NCc1ccc(F)c(F)c1)c1cccnc1NCc1ccccc1-c1c[nH]c2ncccc12 [Example 6.4, N-(3,4-difluorobenzyl)-2-{[2-(1H-pyrrolo[2,3-b]pyridin-3-yl)benzyl]amino}-pyridine-3-carboxamide] | > 5000 | > 10000 |  | 
28 | C[C@H](NC(=O)c1cccnc1NCc1ccc(-c2ccc3ncc4ncn(C)c4c3c2)s1)c1ccc(F)c(F)c1 [Example 2.25, (S)-N-(1-(3,4-difluorophenyl)ethyl)-2-(((5-(1-methyl-1H-imidazo[4,5-c]quinolin-8-yl)thiophen-2-yl)methyl)amino)nicotinamide] | < 100 | < 1000 |  | 
